The subject of test [1] is gastric mucosa lesion induced by 96% ethanol containing hydrochloric acid. Briefly: Protective action against the gastric mucosa lesion induced by 96% ethanol containing hydrochloric acid (acid-ethanol gastric ulcer), p.o. Type of test: in vivo. As to conditions: Rattus norvegicus, po, rats, 0.5 ml of 1:0.02 mixture of 96% ethanol and hydrochloric acid, read-out: ID50 p.o. mg/kg, gastric mucosa lesion induced by 96% ethanol containing hydrochloric acid. On the procedure:
As an example, the protective action of the compounds according to the invention against gastric ulcer induced by 0.5 ml of a 1:0.02 volume ratio mixture of 96% ethanol and hydrochloric acid is illustrated in Table 1. [for the method, see: Gastroenterology 77, 433 (1979)]
Protective action in rats of the compounds according to the
invention against the gastric mucosa lesion induced by 96%
ethanol containing hydrochloric acid

In test [2] the test system is indomethacin-induced gastric mucosa lesion. Briefly: Inhibition of the indomethacin-induced gastric mucosa lesion, p.o. Type of test: in vivo. Particulars: Rattus norvegicus, po, rats, read-out: ID50 p.o. mg/kg, indomethacin-induced gastric mucosa lesion. From the text:
The effect of the compounds to the invention, given as examples, against the indomethacin-induced ulcer [Arch. Int.
Inhibition of the indomethacin-induced gastric mucosa

Test [3] concerns indomethacin-induced duodenal ulcer. Briefly: Indomethacin-induced duodenal/small intestine ulcer formation (method of Tsuromi), with lethality caused by indomethacin. The class given is in vivo, rat. Particulars: 50 mg/kg on 4 consecutive days, 15 mg/kg oral indomethacin on 2nd day, vs control. The procedure:
According to the method of Tsuromi (J. Pharm. Dyn. 1980, 3, 659) the compound was administered to the rats in a dose of 50 mg/kg on 4 consecutive days. On the 2nd day a 15 mg/kg oral dose of indomethacin was given to the rats. The ulcer formation was determined in the small intestine on the 3rd day following the administration of the indomethacin. In comparison to the control, the compound according to the invention exerted an inhibition of 20% on the ulcer formation and also an inhibition of 100% on the lethality caused by indomethacin.

The subject of test [4] is gastrointestinal ulceration induced by indomethacin. Briefly: Gastrointestinal ulceration induced by indomethacin (known compound). Type of test: in vivo.

The structures appear in SMILES notation. Structures can show the parent of a compound that is named as a salt.

Consider seven compounds from patent publication US5475000A, “3-(substituted tetrazolyl)-4-oxo-4H-pyrido-[1,2-a]pyrimidines, salts thereof, pharmaceutical compositions containing them and process for preparing same” (Chinoin Gyogyszer-es Vegyeszeti Termekek Gyara Rt., priority 1991, dated 1995).

`Cc1cccn2c(=O)c(-c3nnnn3C(C)C)cnc12` [3-(1-isopropyl-1H-tetrazol-5-yl)-9-methyl-4-oxo-4H-pyrido[1,2-a]pyrimidine]: the ED50 in test [1] is 0.34 mg/kg. For the compound `C=CCn1nnc(-c2cnc3c(C)cccn3c2=O)n1` [3-(2-allyl-2H-tetrazol-5-yl)-9-methyl-4-oxo-4H-pyrido[1,2-a]pyrimidine], the ED50 in test [1] was found to be 2.9 mg/kg; in test [2] it was 2.5 mg/kg.

Turning to `CCCCn1nnc(-c2cnc3c(C)cccn3c2=O)n1` [3-(2-butyl-2H-tetrazol-5-yl)-9-methyl-4-oxo-4H-pyrido[1,2-a]pyrimidine], the ED50 in test [1] amounted to 2 mg/kg. Take `CC(C)n1nnc(-c2cnc3ccccn3c2=O)n1` [3-(2-isopropyl-2H-tetrazol-5-yl)-4-oxo-4H-pyrido[1,2-a]pyrimidine]: the ED50 in test [1] was 2.2 mg/kg; in test [2], 4 mg/kg. Consider `Cc1cccn2c(=O)c(-c3nnn(C(C)C)n3)cnc12` [3-(2-isopropyl-2H-tetrazol-5-yl)-9-methyl-4-oxo-4H-pyrido[1,2-a]pyrimidine], for which the ED50 was found to be 0.23 mg/kg in test [1] and 2.6 mg/kg in test [2].

Consider `CCCn1nnc(-c2cnc3c(C)cccn3c2=O)n1` [3-(2-propyl-2H-tetrazol-5-yl)-9-methyl-4-oxo-4H-pyrido[1,2-a]pyrimidine], for which, in test [3] (determined on 3rd day following indomethacin), the “inhibition on the ulcer formation in the small intestine” value is 20%. Moreover, in test [3], the “inhibition on the lethality caused by indomethacin” value turned out to be 100%. Moreover, the results for the ED50 in test [1] and in test [2] were 0.05 mg/kg and 5.5 mg/kg, respectively.

`Cc1cccn2c(=O)c(-c3nn[nH]n3)cnc12` [9-methyl-3-(5-tetrazolyl)-4-oxo-4-H-pyrido[1,2-a]pyrimidine potassium salt]: the “prevention of the gastrointestinal ulceration induced by indomethacin” value in test [4] is “did not prevent”.
